The test has as its target T1, human F508del CFTR (Homo sapiens, UniProt P13569, DEL508-508).
T1 construct: expressed in transfected cells; host or cells: Fisher Rat Thyroid (FRT) cells
Put plainly: CFTR-YFP High Throughput Assay. The format is cell-based. The conditions noted are these: FRT cells expressing human F508del CFTR and YFP; for Emax: EMax normalized to the positive control, read-out: % Efficacy. In short, it runs like this: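 Corrector mode: 24-26 h compound exposure (2 nM-40 μM, 37° C) of FRT cells carrying human F508del CFTR and YFP-H148Q/I152L, followed by washing and 60-120 min RT stimulation with 20 μM forskolin and 30 μM P3. CFTR activity is the least-squares-fitted rate of YFP quenching (Ex 500/Em 540 nm) after iodide addition.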

SMILES strings stand for the structures.

What is called EC50 is the midpoint of the concentration-response curve.

T1 sequence (P13569 with tags, fused parts or gaps DEL508-508): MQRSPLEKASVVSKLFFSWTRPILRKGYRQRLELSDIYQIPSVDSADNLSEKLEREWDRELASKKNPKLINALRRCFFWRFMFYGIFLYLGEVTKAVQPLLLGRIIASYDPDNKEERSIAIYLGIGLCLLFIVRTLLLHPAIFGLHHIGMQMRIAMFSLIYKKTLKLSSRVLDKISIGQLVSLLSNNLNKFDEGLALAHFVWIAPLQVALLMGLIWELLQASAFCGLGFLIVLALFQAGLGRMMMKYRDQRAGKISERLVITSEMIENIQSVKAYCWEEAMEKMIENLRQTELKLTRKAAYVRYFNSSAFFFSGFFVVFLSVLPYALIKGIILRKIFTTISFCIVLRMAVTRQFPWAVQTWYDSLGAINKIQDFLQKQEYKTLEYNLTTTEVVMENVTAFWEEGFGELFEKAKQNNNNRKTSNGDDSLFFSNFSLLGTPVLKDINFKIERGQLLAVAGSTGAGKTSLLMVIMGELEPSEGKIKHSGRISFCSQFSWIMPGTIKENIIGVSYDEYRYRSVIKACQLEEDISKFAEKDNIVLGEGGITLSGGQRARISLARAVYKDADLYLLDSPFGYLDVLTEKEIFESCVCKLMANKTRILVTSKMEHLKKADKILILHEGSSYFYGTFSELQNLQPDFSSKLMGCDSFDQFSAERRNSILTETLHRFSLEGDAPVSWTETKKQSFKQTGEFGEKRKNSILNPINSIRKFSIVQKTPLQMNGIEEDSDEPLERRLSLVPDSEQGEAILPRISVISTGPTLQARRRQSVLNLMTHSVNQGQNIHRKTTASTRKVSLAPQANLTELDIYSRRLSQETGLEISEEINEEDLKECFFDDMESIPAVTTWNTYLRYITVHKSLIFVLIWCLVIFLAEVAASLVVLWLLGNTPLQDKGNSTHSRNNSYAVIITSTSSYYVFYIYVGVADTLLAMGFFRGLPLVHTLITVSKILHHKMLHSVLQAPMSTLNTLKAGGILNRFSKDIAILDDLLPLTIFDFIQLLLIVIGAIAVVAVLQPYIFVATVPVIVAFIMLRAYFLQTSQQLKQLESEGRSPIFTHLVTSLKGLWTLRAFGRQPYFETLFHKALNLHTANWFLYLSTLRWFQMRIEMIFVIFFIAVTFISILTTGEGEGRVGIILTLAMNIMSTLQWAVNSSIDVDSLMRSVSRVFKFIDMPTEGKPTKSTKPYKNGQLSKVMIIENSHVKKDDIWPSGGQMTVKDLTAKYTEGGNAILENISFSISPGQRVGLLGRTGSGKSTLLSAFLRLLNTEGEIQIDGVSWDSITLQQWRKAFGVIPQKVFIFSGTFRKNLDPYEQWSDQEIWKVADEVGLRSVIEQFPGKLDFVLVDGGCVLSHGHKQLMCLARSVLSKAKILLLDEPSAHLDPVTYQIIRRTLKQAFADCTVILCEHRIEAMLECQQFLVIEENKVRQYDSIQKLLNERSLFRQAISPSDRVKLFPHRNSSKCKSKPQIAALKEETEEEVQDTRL

`CCN(C(=O)c1nn(-c2ccccc2)c(=O)c2c1c1ccccc1n2C)c1cccc(F)c1` [Example 175, N-ethyl-N-(3-fluorophenyl)-5-methyl-4-oxo-3-phenyl-4,5-dihydro-3H-pyridazino[4,5-b]indole-1-carboxamide]: the Emax lay within 30 to 80% and the EC50 was > 20 µM.

`Cc1ccc(-n2nc(CN3CCOCC3)c3c4ccccc4n(C)c3c2=O)cc1` [Example 243, 5-methyl-1-(morpholinomethyl)-3-(p-tolyl)-3,5-dihydro-4H-pyridazino[4,5-b]indol-4-one]: the Emax fell in the range of 30 to 80% and the EC50 is < 10 µM.

Turning to `Cc1ccc(-n2nc(C(=O)N(c3ccccc3)C3CC3)c3c4ccccc4n(C)c3c2=O)cc1` [Example 153, N-cyclopropyl-5-methyl-4-oxo-N-phenyl-3-(p-tolyl)-4,5-dihydro-3H-pyridazino[4,5-b]indole-1-carboxamide], the Emax is 30 to 80%.

Take `CCN(C(=O)Cn1nc(-c2ccc(C(N)=O)cc2)c2ccc(OC)cc2c1=O)c1ccc2c(c1)OC(F)(F)O2` [Example 82, 4-(3-(2-((2,2-difluorobenzo[d][1, 3]dioxol-5-yl)(ethyl)amino)-2-oxoethyl)-6-methoxy-4-oxo-3,4-dihydrophthalazin-1-yl)benzamide]: the Emax fell in the range of 30 to 80%.

With `CCOc1ccc2c(-c3cccc(C#N)c3)nn(CC(=O)N(C)c3ccc4nc(C)oc4c3)c(=O)c2c1` [Example 109, 2-(4-(3-cyanophenyl)-7-ethoxy-1-oxophthalazin-2(1H)-yl)-N-methyl-N-(2-methylbenzo[d]oxazol-6-yl)acetamide], the Emax is > 80% and the EC50 is < 10 µM.

As to `COc1ccc2c(c1)c1c(=O)n(CC(=O)N(C)c3ccc4nc(C)oc4c3)ncc1n2Cc1ccc(C#N)cc1` [Example 259, 2-(5-(4-cyanobenzyl)-8-methoxy-1-oxo-1,5-dihydro-2H-pyridazino[4,5-b]indol-2-yl)-N-methyl-N-(2-methylbenzo[d]oxazol-6-yl)acetamide], the Emax is > 80% and the EC50 was < 10 µM.

On to `CCN(C(=O)c1nn(C(C)C)c(=O)c2c1c1ccccc1n2C)c1cccc(Cl)c1` [Example 201, N-(3-chlorophenyl)-N-ethyl-3-isopropyl-5-methyl-4-oxo-4,5-dihydro-3H-pyridazino[4,5-b]indole-1-carboxamide], for which the Emax lay within 30 to 80%.

For the molecule `CCN(C(=O)Cn1nc(C(=O)N(CC)c2cccc(Cl)c2)c2c3ccccc3n(C)c2c1=O)c1ccc2c(c1)OC(F)(F)O2` [Example 202, N-(3-chlorophenyl)-3-(2-((2,2-difluorobenzo[d][1,3]dioxol-5-yl)(ethyl)amino)-2-oxoethyl)-N-ethyl-5-methyl-4-oxo-4,5-dihydro-3H-pyridazino[4,5-b]indole-1-carboxamide], the Emax fell in the range of 30 to 80%.

Consider `CCN(C(=O)Cn1nc(Cc2cccnc2)c2cccc(OCCOC)c2c1=O)c1ccc2c(c1)OC(F)(F)O2` [Example 61, N-(2,2-difluorobenzo[d][1,3]dioxol-5-yl)-N-ethyl-2-(8-(2-methoxyethoxy)-1-oxo-4-(pyridin-3-ylmethyl)phthalazin-2(1H)-yl)acetamide], for which the Emax was 30 to 80%.

Regarding `CCN(C(=O)Cn1nc(-c2cccc(C#N)c2)c2ccc(OC)cc2c1=O)c1ccc2nc(C)oc2c1` [Example 81, 2-(4-(3-cyanophenyl)-7-methoxy-1-oxophthalazin-2(1H)-yl)-N-ethyl-N-(2-methylbenzo[d]oxazol-6-yl)acetamide], the Emax was > 80% and the EC50 is < 10 µM.

Regarding `COc1ccc2c(-c3cccc(C#N)c3)nn(CC(=O)C3(c4ccc5c(c4)OC(F)(F)O5)CC3)c(=O)c2c1` [Example 252, 3-(3-(2-(1-(2,2-difluorobenzo[d][1,3]dioxol-5-yl)cyclopropyl)-2-oxoethyl)-6-methoxy-4-oxo-3,4-dihydrophthalazin-1-yl)benzonitrile], the Emax was > 80% and the EC50 was < 10 µM.

For `CCOc1cccc2c(Cc3cccnc3)nn(CC(=O)N(CC)c3ccc4c(c3)OC(F)(F)O4)c(=O)c12` [Example 57, N-(2,2-difluorobenzo[d][1,3]dioxol-5-yl)-N-ethyl-2-(8-ethoxy-1-oxo-4-(pyridin-3-ylmethyl)phthalazin-2(1H)-yl)acetamide], the Emax fell in the range of 30 to 80%.

On to `CCN(C(=O)Cn1ncc2c(c1=O)c1ccccc1n2CC#N)c1ccc2c(c1)OC(F)(F)O2` [Example 139, 2-(5-(cyanomethyl)-1-oxo-1H-pyridazino[4,5-b]indol-2(5H)-yl)-N-(2,2-difluorobenzo[d][1,3]dioxol-5-yl)-N-ethylacetamide], for which the Emax lay in the range of 30 to 80% and the EC50 was in the range of 10 to 20 µM.

Take `CCN(CC)C(=O)c1nn(-c2ccc(C)cc2)c(=O)c2c1c1ccccc1n2C` [Example 155, N, N-diethyl-5-methyl-4-oxo-3-(p-tolyl)-4,5-dihydro-3H-pyridazino[4,5-b]indole-1-carboxamide]: the Emax lay in the range of 30 to 80%.

Regarding `CCOC(=O)c1ccc2c(=O)n(CC(=O)N(C)c3ccc4nc(C)oc4c3)nc(-c3cccc(Cl)c3)c2c1` [Example 66, ethyl 1-(3-chlorophenyl)-3-(2-(methyl(2-methylbenzo[d]oxazol-6-yl)amino)-2-oxoethyl)-4-oxo-3,4-dihydrophthalazine-7-carboxylate], the Emax was > 80% and the EC50 is < 10 µM.

For the molecule `CCN(C(=O)c1nn(-c2ccc(C)cc2)c(=O)c2[nH]c3ccccc3c12)c1cccc(Cl)c1` [Example 221, N-(3-chlorophenyl)-N-ethyl-4-oxo-3-(p-tolyl)-4,5-dihydro-3H-pyridazino[4,5-b]indole-1-carboxamide], the Emax lay within 30 to 80%.

Turning to `COc1ccc2c(-c3ccc(S(N)(=O)=O)cc3)nn(CC(=O)N(c3ccc4c(c3)OC(F)(F)O4)C3CC3)c(=O)c2c1` [Example 78, N-cyclopropyl-N-(2,2-difluorobenzo[d][1,3]dioxol-5-yl)-2-(7-methoxy-1-oxo-4-(4-sulfamoylphenyl)phthalazin-2(1H)-yl)acetamide], the Emax was 30 to 80%.

In the case of `CCN(C(=O)Cn1nc(Cc2cccnc2)c2cccc(C)c2c1=O)c1ccc2c(c1)OC(F)(F)O2` [Example 47, N-(2,2-difluorobenzo[d][1,3]dioxol-5-yl)-N-ethyl-2-(8-methyl-1-oxo-4-(pyridin-3-ylmethyl)phthalazin-2(1H)-yl)acetamide], the Emax lay in the range of 30 to 80%.

In the case of `Cc1nc2ccc(N(C(=O)Cn3nc(-c4cccc(Cl)c4)c4ccc(O)cc4c3=O)C3CC3)cc2o1` [Example 100, 2-(4-(3-chlorophenyl)-7-hydroxy-1-oxophthalazin-2(1H)-yl)-N-cyclopropyl-N-(2-methylbenzo[d]oxazol-6-yl)acetamide], the EC50 was < 10 µM.

Take `CCN(C(=O)Cn1ncc2c(c1=O)c1ccccc1n2Cc1ccc(C#N)cc1)c1ccc2c(c1)OC(F)(F)O2` [Example 144, 2-(5-(4-cyanobenzyl)-1-oxo-1H-pyridazino[4,5-b]indol-2(5H)-yl)-N-(2-2-difluorobenzo[d][1,3]dioxol-5-yl)-N-ethylacetamide]: the Emax is > 80% and the EC50 is 10 to 20 µM.

As to `CCN(C(=O)c1nn(-c2cccnc2)c(=O)c2c1c1ccccc1n2C)c1ccccc1` [Example 168], the Emax is 30 to 80%.

Take `CCN(C(=O)Cn1nc(Cc2cccnc2)c2ccc(OC)cc2c1=O)c1ccc2c(c1)OC(F)(F)O2` [Example 52, N-(2,2-difluorobenzo[d][1,3]dioxol-5-yl)-N-ethyl-2-(7-methoxy-1-oxo-4-(pyridin-3-ylmethyl)phthalazin-2(1H)-yl)acetamide]: the Emax was in the range of 30 to 80%.

As to `CCN(C(=O)Cn1nc(Cc2cccnc2)c2cccc(OC)c2c1=O)c1ccc2c(c1)OC(F)(F)O2` [Example 55, N-(2,2-difluorobenzo[d][1,3]dioxol-5-yl)-N-ethyl-2-(8-methoxy-1-oxo-4-(pyridin-3-ylmethyl)phthalazin-2(1H)-yl)acetamide], the Emax is 30 to 80%.

As to `CCOc1cccc2c(=O)n(CC(=O)N(CC)c3ccc4c(c3)OC(F)(F)O4)nc(Cc3cccnc3)c12` [Example 58, N-(2,2-difluorobenzo[d][1,3]dioxol-5-yl)-N-ethyl-2-(5-ethoxy-1-oxo-4-(pyridin-3-ylmethyl)phthalazin-2(1H)-yl)acetamide], the Emax was in the range of 30 to 80% and the EC50 was < 10 µM.

On to `CCN(CC)C(=O)c1nn(CC(O)COCc2ccccc2)c(=O)c2c1c1c(F)cccc1n2C` (stereo not drawn) [Example 234, 3-(3-(benzyloxy)-2-hydroxypropyl)-N,N-diethyl-9-fluoro-5-methyl-4-oxo-4,5-dihydro-3H-pyridazino[4,5-b]indole-1-carboxamide], for which the Emax was 30 to 80% and the EC50 was < 10 µM.

On to `CCN(C(=O)Cn1ncc2c(c1=O)c1ccccc1n2Cc1ccc(C#N)cc1F)c1ccc2c(c1)OC(F)(F)O2` [Example 146, 2-(5-(4-cyano-2-fluorobenzyl)-1-oxo-1H-pyridazino[4,5-b]indol-2(5H)-yl)-N-(2,2-difluorobenzo[d][1,3]dioxol-5-yl)-N-ethylacetamide], for which the Emax lay within 30 to 80% and the EC50 is < 10 µM.

As to `CN(C(=O)Cn1nc(-c2cccc(C#N)c2)c2ccc(O)cc2c1=O)c1ccc2c(c1)OC(F)(F)O2` [Example 102, 2-(4-(3-cyanophenyl)-7-hydroxy-1-oxophthalazin-2(1H)-yl)-N-(2,2-difluorobenzo[d][1,3]dioxol-5-yl)-N-methylacetamide], the Emax was > 80% and the EC50 was < 10 µM.

In the case of `CCN(C(=O)c1nn(CC(=O)N2CCCCC2)c(=O)c2c1c1ccccc1n2C)c1ccccc1` [Example 214, N-ethyl-5-methyl-4-oxo-3-(2-oxo-2-(piperidin-1-yl)ethyl)-N-phenyl-4,5-dihydro-3H-pyridazino[4,5-b]indole-1-carboxamide], the Emax was 30 to 80% and the EC50 was < 10 µM.

For the origin of these results see patent US10370366B2 (Flatley Discovery Lab, LLC, priority 2013, dated 2019).
